Measurements taken from article PMC6136245 (Bioorganic & medicinal chemistry letters, 2013).

Tests used:
HCV NS3 helicase (NS3h) [1] = target: T1, HCV NS3 helicase (NS3h) (Hepacivirus hominis (Hepatitis C virus), UniProt P29846); test: HCV helicase unwinding assay, DNA substrate; assay type: biochemical
HCV NS3 helicase (NS3h) [2] = target: T1, HCV NS3 helicase (NS3h); test: HCV helicase unwinding assay, RNA substrate; assay type: biochemical
JEV helicase = JEV helicase (Japanese encephalitis virus, UniProt P27395); test: JEV helicase inhibition; assay type: biochemical
DENV helicase = DENV helicase (Dengue virus type 2, UniProt P29990); test: DENV helicase inhibition; assay type: biochemical
[3] = system: EcoRI-digested pT7-7 plasmid; test: Gel shift assay with plasmid; assay type: binding

T1 sequence (P29846 1192-1657): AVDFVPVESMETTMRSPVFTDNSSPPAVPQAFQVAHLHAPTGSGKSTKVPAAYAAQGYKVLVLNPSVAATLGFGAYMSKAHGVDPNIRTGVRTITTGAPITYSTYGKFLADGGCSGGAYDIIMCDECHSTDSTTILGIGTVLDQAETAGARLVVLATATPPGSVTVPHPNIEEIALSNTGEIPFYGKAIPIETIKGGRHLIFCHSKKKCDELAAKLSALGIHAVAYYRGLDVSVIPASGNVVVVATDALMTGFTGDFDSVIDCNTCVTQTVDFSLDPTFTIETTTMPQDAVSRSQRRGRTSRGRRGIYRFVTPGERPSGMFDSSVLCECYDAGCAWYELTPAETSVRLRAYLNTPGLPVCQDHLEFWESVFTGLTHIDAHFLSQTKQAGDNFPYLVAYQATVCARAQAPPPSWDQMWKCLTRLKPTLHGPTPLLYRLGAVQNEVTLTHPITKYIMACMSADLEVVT
JEV helicase, sequence (P27395 1505-2123): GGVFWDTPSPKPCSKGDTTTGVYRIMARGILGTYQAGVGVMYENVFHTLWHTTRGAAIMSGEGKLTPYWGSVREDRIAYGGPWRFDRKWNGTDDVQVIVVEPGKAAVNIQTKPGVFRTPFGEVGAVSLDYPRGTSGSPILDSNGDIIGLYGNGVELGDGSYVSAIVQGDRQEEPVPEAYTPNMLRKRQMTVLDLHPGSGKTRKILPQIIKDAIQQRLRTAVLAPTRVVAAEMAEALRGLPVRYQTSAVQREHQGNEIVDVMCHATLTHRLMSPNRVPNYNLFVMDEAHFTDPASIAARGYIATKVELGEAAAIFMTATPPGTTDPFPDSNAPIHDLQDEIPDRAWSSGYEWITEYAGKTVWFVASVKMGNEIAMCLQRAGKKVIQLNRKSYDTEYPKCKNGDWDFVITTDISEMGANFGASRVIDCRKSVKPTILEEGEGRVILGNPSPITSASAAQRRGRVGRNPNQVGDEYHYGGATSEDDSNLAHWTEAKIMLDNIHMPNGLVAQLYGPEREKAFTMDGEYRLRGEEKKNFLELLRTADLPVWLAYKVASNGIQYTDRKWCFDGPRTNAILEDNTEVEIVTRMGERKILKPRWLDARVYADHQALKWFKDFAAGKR
DENV helicase, sequence (P29990 1476-2093): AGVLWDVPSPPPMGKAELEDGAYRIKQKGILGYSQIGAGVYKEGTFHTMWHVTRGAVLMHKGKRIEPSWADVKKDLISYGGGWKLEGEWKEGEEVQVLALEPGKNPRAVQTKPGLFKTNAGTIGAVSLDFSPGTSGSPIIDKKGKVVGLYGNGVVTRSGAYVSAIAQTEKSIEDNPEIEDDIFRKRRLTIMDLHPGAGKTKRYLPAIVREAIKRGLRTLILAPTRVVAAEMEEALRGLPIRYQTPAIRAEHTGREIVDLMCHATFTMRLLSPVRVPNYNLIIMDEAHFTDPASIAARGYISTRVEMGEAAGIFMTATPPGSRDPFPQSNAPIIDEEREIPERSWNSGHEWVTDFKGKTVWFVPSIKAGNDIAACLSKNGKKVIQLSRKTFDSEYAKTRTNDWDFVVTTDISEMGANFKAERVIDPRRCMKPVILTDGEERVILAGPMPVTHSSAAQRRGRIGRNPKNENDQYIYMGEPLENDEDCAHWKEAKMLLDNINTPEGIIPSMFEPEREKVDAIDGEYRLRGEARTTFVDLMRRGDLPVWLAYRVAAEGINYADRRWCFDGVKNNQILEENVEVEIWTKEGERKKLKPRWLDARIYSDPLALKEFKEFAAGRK

| Structure (SMILES) | IC50 (HCV NS3 helicase (NS3h) [1]) | IC50 (HCV NS3 helicase (NS3h) [2]) | JEV helicase inhibition, in words (JEV helicase) | DENV helicase inhibition, in words (DENV helicase) | Effect on gel mobility of plasmid [3] | HCV helicase inhibition, in words (HCV NS3 helicase (NS3h) [1]; DNA substrate) | HCV helicase inhibition, in words (HCV NS3 helicase (NS3h) [2]; RNA substrate) |
| --- | --- | --- | --- | --- | --- | --- | --- |
| COC(=O)c1cccc2oc(-c3ccccc3O)nc12 [Compound 1] | > 1800 µM | > 1800 µM |  |  |  |  |  |
| O=C(O)c1cccc2oc(-c3ccccc3O)nc12 [Compound 2] | > 1800 µM | > 1800 µM |  |  |  |  |  |
| CNC(=O)c1cccc2oc(-c3ccccc3O)nc12 [Compound 3] | > 1800 µM | > 1800 µM |  |  |  |  |  |
| COC(=O)c1cccc2oc(-c3ccc4c(OCc5ccccc5)cccc4c3O)nc12 [Compound 5] |  |  | no inhibition | no inhibition | do not affect |  |  |
| COC(=O)c1cccc2oc(-c3ccc4ccc(OCc5ccccc5)cc4c3O)nc12 [Compound 6] |  |  | no inhibition | no inhibition | do not affect |  |  |
| COC(=O)c1cccc2oc(-c3cccc4oc(-c5ccccc5O)nc34)nc12 [UK-1] |  | > 1200 µM |  |  |  | weak inhibition | no inhibition |
